Measured values reported in ChEMBL document CHEMBL1201862, “PubChem BioAssay data set” (2004).
Active and inactive are the calls of the source.

Assays:
[1] = target: T1, Sentrin-specific protease 8 (Homo sapiens, UniProt Q96LD8); experiment: inhibition of human SENP8 cleavage activity – biochemical, luminescence, SAR follow-up (AID 504501); type: functional
T1 sequence (Q96LD8 whole entry): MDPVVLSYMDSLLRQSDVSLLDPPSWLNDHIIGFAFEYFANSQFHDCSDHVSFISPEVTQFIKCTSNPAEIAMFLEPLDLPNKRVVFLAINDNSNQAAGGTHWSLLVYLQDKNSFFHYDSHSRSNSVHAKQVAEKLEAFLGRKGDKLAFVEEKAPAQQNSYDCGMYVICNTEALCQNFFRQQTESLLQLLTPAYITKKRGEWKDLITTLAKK

Caspase-3 = target: T2, Caspase-3 (Homo sapiens, UniProt P42574); experiment: SAR Analysis of small molecule inhibitors of Sentrin-specific proteases (SENPs) using a Caspase-3 Selectivity assay. [Related pubchem assays (depositor defined):AID2540, AID2599, AID434973, AID489001]; type: functional
T2 sequence (P42574 whole entry): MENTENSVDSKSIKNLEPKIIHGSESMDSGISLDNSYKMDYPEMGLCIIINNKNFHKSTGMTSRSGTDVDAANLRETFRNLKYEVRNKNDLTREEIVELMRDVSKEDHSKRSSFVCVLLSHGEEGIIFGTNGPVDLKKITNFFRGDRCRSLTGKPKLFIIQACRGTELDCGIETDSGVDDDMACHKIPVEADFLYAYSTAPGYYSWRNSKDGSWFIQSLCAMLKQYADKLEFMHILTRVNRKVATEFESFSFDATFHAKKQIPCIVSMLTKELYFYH

[2] = target: T3, Sentrin-specific protease 6 (Homo sapiens, UniProt Q9GZR1); experiment: SAR Analysis of small molecule inhibitors of Sentrin-specific protease 6 (SENP6) using a Luminescent assay. [Related pubchem assays (depositor defined):AID2582, AID2599]; type: functional
T3 sequence (Q9GZR1 whole entry): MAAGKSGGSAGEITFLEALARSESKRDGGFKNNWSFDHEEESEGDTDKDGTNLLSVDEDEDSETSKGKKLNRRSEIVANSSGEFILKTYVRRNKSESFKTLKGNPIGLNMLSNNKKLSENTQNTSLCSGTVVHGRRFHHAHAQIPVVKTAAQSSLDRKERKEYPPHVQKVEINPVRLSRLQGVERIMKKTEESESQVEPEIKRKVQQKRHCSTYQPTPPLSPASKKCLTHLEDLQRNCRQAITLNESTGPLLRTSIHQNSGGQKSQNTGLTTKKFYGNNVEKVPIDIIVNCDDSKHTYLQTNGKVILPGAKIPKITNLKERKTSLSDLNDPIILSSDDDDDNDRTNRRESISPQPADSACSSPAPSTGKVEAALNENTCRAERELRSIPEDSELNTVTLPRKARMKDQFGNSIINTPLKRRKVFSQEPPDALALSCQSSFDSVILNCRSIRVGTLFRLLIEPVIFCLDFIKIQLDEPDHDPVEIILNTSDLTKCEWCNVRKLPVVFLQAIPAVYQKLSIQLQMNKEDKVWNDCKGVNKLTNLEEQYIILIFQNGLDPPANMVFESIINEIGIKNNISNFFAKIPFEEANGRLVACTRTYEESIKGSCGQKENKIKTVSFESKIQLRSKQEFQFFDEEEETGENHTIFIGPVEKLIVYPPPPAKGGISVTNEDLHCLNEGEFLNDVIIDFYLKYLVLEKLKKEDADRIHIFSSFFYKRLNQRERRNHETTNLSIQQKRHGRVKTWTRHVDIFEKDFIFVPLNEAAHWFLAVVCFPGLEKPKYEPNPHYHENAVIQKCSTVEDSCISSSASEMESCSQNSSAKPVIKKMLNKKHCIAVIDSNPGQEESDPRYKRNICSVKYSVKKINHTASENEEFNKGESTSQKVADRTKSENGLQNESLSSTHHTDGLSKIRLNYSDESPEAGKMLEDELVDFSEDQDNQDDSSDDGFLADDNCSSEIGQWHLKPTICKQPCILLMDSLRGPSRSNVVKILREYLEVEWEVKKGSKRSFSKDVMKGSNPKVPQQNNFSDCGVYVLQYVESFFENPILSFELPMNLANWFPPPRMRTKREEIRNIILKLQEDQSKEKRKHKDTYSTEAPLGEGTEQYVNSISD

[3] = target: T4, Sentrin-specific protease 7 (Homo sapiens, UniProt Q9BQF6); experiment: inhibition of human SENP7 cleavage activity – biochemical, luminescence, SAR follow-up (AID 504497); type: functional
T4 sequence (Q9BQF6 whole entry): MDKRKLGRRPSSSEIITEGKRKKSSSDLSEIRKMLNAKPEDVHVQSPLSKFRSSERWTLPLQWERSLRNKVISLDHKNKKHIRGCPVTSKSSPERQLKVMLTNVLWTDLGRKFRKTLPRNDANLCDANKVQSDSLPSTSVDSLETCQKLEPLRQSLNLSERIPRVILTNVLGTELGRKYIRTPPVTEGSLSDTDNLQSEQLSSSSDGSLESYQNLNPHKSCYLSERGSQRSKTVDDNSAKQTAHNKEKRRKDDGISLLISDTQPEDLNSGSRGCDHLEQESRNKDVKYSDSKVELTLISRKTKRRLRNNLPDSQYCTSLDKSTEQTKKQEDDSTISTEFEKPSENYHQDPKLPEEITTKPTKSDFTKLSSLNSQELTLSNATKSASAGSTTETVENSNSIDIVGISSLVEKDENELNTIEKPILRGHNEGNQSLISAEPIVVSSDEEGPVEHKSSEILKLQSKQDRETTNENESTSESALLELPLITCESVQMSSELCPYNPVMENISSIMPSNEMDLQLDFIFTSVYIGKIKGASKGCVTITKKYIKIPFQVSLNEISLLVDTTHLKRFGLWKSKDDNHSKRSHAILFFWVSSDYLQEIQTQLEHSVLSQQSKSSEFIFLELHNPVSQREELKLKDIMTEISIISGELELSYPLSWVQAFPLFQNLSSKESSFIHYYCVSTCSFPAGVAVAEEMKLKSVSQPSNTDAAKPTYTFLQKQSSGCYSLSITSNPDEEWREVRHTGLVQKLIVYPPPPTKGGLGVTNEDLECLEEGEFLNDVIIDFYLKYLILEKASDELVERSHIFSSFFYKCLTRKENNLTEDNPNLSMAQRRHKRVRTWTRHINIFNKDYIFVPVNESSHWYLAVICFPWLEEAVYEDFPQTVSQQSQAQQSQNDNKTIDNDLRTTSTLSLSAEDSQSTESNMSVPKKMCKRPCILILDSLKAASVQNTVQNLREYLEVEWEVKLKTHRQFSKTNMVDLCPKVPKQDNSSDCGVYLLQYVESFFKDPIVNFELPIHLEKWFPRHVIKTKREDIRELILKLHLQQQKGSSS

CHO-K1 = experiment: (§1) Counterscreen for antagonists of the orexin 1 receptor (OX1R; HCRTR1): Homogeneous time resolved fluorescence (HTRF)-based cell-based dose response assay to identify antagonists of the parental CHO-K1 cell line. [Related pubchem assays (depositor defined):AID434989, AID435008, AID463079, AID485270, AID492963, AID492964, AID492965, AID493232, AID504699, AID504701]; type: functional; conditions: Cricetulus griseus
[4] = as §1, with “Fluorescence-based” for “Homogeneous time resolved fluorescence (HTRF)-based”, “cell-based high throughput” for “cell-based”, “CHO” for “CHO-K1”; type: functional
[5] = target: T5, Orexin/Hypocretin receptor type 1 (Homo sapiens, UniProt O43613); experiment: Homogeneous Time Resolved Fluorescence (HTRF)-based cell-based high throughput dose response assay for antagonists of the orexin 1 receptor (OX1R; HCRTR1). [Related pubchem assays (depositor defined):AID434989, AID435008, AID463079, AID485270, AID492963, AID492964, AID492965, AID493232, AID504717, AID504718]; type: functional
T5 sequence (O43613 whole entry): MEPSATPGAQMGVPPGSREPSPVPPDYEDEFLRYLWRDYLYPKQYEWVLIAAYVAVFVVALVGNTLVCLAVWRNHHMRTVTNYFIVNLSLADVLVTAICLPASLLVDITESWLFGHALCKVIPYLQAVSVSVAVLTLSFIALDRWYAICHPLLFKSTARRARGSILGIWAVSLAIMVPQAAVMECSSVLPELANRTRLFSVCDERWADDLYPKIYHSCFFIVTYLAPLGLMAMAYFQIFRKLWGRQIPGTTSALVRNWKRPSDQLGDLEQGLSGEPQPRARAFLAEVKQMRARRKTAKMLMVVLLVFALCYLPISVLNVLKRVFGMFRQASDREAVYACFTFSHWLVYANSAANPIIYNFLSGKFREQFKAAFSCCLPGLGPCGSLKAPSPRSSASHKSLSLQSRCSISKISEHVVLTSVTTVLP

[6] = target: T5, Orexin/Hypocretin receptor type 1; experiment: Fluorescence-based cell-based high throughput dose response assay for antagonists of the orexin 1 receptor (OX1R; HCRTR1). [Related pubchem assays (depositor defined):AID434989, AID435008, AID463079, AID485270, AID492963, AID492964, AID492965, AID493232, AID504717, AID504718]; type: functional
Orexin receptor type 2 [7] = target: T6, Orexin receptor type 2 (Homo sapiens, UniProt O43614); experiment: Counterscreen assay for antagonists of the orexin 1 receptor (OX1R; HCRTR1): Fluorescence-based cell-based dose response assay for antagonists of the orexin 2 receptor (OX2R; HCRTR2), run by assay provider.; type: functional
T6 sequence (O43614 whole entry): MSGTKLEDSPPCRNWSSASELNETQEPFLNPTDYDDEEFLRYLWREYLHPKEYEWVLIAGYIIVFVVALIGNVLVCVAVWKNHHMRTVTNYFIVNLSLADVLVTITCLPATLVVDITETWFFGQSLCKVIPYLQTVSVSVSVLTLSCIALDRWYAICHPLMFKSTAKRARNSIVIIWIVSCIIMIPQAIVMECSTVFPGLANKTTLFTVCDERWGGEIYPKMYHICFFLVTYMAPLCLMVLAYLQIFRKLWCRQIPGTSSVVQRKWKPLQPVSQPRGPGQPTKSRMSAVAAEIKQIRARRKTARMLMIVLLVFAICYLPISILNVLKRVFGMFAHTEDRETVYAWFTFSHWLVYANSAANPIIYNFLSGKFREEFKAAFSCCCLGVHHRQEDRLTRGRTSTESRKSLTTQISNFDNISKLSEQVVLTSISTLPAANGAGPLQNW

Orexin receptor type 2 [8] = target: T6, Orexin receptor type 2; experiment: Counterscreen assay for antagonists of the orexin 1 receptor (OX1R; HCRTR1): Homogeneous Time Resolved Fluorescence (HTRF)-based cell-based dose response assay for antagonists of the orexin 2 receptor (OX2R; HCRTR2), run by assay provider.; type: functional
[9] = target: Nuclear receptor subfamily 5 group A member 2 (Homo sapiens, UniProt O00482); type: functional, cell-based;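 note: HEK293T cells transfected with LRH-1 and a StAR promoter luciferase reporter; potency for inhibitors that lower LRH-1 driven reporter light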
Sequence of Nuclear receptor subfamily 5 group A member 2 (O00482 whole entry): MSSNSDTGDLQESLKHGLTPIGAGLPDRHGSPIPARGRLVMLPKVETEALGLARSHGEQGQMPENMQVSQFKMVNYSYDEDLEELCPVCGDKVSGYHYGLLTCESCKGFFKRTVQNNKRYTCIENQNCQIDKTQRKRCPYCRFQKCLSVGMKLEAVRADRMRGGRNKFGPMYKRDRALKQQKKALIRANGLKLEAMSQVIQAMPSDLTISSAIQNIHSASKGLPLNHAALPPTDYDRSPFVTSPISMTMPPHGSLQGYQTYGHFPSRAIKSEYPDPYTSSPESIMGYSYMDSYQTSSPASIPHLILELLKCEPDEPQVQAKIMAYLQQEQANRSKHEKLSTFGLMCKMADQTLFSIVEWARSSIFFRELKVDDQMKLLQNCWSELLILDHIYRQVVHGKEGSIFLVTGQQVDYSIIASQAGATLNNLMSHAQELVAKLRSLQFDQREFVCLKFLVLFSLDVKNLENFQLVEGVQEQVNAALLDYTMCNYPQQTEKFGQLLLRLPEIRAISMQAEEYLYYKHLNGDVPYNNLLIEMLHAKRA

Steroidogenic factor 1 = Steroidogenic factor 1 (Homo sapiens, UniProt Q13285); experiment: Counterscreen for inverse agonists of the liver receptor homolog-1 (LRH-1; NR5A2): Luminescence-based cell-based high throughput dose response assay to identify inverse agonists of the Steroidogenic Factor 1 Nuclear Receptor (SF1; NR5A1).; type: functional
Sequence of Steroidogenic factor 1 (Q13285 whole entry): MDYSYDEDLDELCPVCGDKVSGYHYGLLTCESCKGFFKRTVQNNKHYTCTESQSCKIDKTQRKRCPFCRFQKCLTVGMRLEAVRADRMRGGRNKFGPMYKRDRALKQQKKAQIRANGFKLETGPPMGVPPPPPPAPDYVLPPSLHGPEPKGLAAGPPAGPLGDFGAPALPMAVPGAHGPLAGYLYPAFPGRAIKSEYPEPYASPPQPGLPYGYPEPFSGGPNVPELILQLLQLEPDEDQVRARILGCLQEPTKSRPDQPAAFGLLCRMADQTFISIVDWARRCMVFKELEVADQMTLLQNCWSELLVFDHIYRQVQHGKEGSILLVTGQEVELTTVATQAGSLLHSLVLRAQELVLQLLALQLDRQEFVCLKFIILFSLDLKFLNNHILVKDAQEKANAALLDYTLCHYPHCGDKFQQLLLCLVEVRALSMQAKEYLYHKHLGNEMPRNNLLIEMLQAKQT

[10] = nonselective StAR promoter luciferase inhibitors – cell-based, luminescence, luciferase reporter, counter-screen for LRH-1 inverse agonist project, dose response (AID 651969); type: functional
Protein Wnt-3a = Protein Wnt-3a (Mus musculus, UniProt P27467); experiment: antagonism of Wnt3a pathway luciferase reporter – Wnt-LIGHT cells, luminescence, selectivity assay for Gli-SUFU antagonist project, dose response (AID 651570); type: functional; conditions: read-out: IC50_Mean;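 note: Wnt-LIGHT reporter cells stimulated with conditioned medium from Wnt3a-producing cells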
Sequence of Protein Wnt-3a (P27467 whole entry): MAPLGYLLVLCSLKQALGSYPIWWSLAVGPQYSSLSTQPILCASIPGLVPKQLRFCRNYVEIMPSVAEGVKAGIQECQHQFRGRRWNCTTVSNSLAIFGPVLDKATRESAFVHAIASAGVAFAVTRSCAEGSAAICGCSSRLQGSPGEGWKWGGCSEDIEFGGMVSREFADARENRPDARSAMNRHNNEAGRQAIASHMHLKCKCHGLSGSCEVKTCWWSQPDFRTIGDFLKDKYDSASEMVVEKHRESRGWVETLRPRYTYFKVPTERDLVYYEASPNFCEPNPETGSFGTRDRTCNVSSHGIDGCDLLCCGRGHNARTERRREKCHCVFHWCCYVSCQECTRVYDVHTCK

[11] = Luminescence Cell-Based Dose Retest to Confirm Inhibitors of Cancer Stem Cells. [Related pubchem assays (depositor defined):AID2717, AID2721]; type: functional; conditions: Homo sapiens
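Throughout, for AC50: cells exposed to compound for roughly 70 hours or longer before luminescence read.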

Compound: O=C(Nc1ccccc1Cl)c1ccc(OCc2ccccc2)cc1
- IC50 [1]: > 99 µM (inactive)
- IC50 (Caspase-3): > 99 µM (inactive)
- IC50 [2]: > 99 µM (inactive)
- IC50 [3]: > 99 µM (inactive)

Compound: Cc1c(C(=O)OCC(=O)NCCN2C(=O)CSC2=O)oc2c1ccc1ccccc12
- IC50 (CHO-K1): > 66.2 µM (inactive)
- IC50 [4]: > 49.7 µM (inactive)
- IC50 [5]: 1.23 µM (active)
- IC50 [6]: 6.78 µM (active)
- IC50 (Orexin receptor type 2 [7]): > 88.8 µM (inactive)
- IC50 (Orexin receptor type 2 [8]): > 50 µM (inactive)

Compound: COc1cc(C(=O)Nc2ccccc2Cl)ccc1OCc1ccc(Cl)cc1
- IC50 [1]: > 99 µM (inactive)
- IC50 (Caspase-3): > 99 µM (inactive)
- IC50 [2]: > 99 µM (inactive)
- IC50 [3]: > 99 µM (inactive)

Compound: Fc1cccc(Nc2nc3ccccc3n3cnnc23)c1
- IC50 (CHO-K1): > 66.3 µM (inactive)
- IC50 [4]: > 49.8 µM (inactive)
- IC50 [5]: 2.03 µM (active)
- IC50 [6]: 7.59 µM (active)
- IC50 (Orexin receptor type 2 [7]): > 88.8 µM (inactive)
- IC50 (Orexin receptor type 2 [8]): 2.13 µM (active)

Compound: CC(C)CC1(C)NC(=O)N(CC(=O)Nc2ccc3c(c2)OCCO3)C1=O (stereo unspecified)
- IC50 [9]: 42.7 µM (inactive)
- IC50 (Steroidogenic factor 1): 7.12 µM (active)
- IC50 [10]: 35.9 µM (inactive)

Compound: COC(=O)c1ccc(NC(=O)C(=O)c2c[nH]c3ccccc23)cc1
- IC50 [1]: > 99 µM (inactive)
- IC50 (Caspase-3): > 99 µM (inactive)
- IC50 [2]: > 99 µM (inactive)
- IC50 [3]: > 99 µM (inactive)

Compound: Cc1ccc(C)c([N+]2=C3CCCCN3C(O)(c3cccs3)C2)c1 (stereo unspecified)
- IC50 (Protein Wnt-3a): 13.2 µM (active)

Compound: Cn1c2ccccc2c(=O)c2cc(C#Cc3ccccn3)ccc21
- IC50 (CHO-K1): > 66.2 µM (inactive)
- AC50 [11]: 9.17 µM (active)
- IC50 [4]: > 49.7 µM (inactive)
- IC50 [5]: 0.413 µM (active)
- IC50 [6]: 3.9 µM (active)
- IC50 (Orexin receptor type 2 [7]): > 88.8 µM (inactive)
- IC50 (Orexin receptor type 2 [8]): > 50 µM (inactive)

Compound: CC(=O)c1ccc(N2CCN(c3ccc(C(F)(F)F)cn3)CC2)cc1
- IC50 (Protein Wnt-3a): 24.3 µM (inactive)
